Laboratory results: publication PMC7682989, “Large domain movements through the lipid bilayer mediate substrate release and inhibition of glutamate transporters” (eLife, 2020)
Numbering of substitutions follows the chain as printed. pKd: −log10 of the molar value.

Columns and labels:
GltPh [1] = molecular target: T1, GltPh (Pyrococcus horikoshii, UniProt O59010, D37H/K40H/K125H/K132H/K223H/K264H/E368H); assay: cryo-EM structure; format: binding; conditions: outward-facing state, MSP1E3 nanodiscs; 200 mM NaCl, 10 mM DL-TBOA, pH 7.4
T1 construct: gene PH1295; C-terminal His8 cut by thrombin; E. coli DH10B; homotrimer; DDM (ITC) or MSP1E3 nanodiscs (cryo-EM)
T1 sequence (O59010 1-425 D37H/K40H/K125H/K132H/K223H/K264H/E368H limits assumed): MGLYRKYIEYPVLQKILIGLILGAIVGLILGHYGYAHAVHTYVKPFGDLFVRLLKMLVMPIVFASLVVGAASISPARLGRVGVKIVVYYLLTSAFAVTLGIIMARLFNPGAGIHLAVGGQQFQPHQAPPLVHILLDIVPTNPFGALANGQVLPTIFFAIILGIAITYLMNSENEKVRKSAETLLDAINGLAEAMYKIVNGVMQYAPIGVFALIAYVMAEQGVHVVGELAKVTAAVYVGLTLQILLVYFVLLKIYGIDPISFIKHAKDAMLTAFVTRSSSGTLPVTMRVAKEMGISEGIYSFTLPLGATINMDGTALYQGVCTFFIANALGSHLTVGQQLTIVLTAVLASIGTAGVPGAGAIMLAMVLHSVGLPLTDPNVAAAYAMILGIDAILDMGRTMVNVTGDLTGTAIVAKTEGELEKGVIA

GltPh [2] = molecular target: T2, GltPh (Pyrococcus horikoshii, UniProt O59010, D37H/K40H/K55C/K125H/K132H/K223H/K264H/C321A/A364C/E368H); assay: cryo-EM structure; format: binding; conditions: inward-facing, Hg2+-crosslinked K55C/A364C; MSP1E3 nanodiscs; 200 mM NaCl, 1 mM L-asp, pH 7.4
T2 construct: gene PH1295; C-terminal His8 cut by thrombin; E. coli DH10B; homotrimer; DDM (ITC) or MSP1E3 nanodiscs (cryo-EM)
T2 sequence (O59010 1-425 D37H/K40H/K55C/K125H/K132H/K223H/K264H/C321A/A364C/E368H limits assumed): T1 sequence (O59010 1-425 D37H/K40H/K125H/K132H/K223H/K264H/E368H limits assumed) with K55C, C321A, A364C

GltPh [3] = molecular target: T2, GltPh; assay: isothermal titration calorimetry; format: binding; conditions: inward-facing, Hg2+-crosslinked K55C/A364C; DDM; 200 mM NaCl, pH 7.4, 15 °C; n 0.8; structure in nanodiscs 3.71 Å
[4] = molecular target: GltPh, the fully functional seven-histidine mutant referred to as wildtype (WT) (UniProt O59010); assay: cryo-EM structure; single-particle cryo-EM of GltPh reconstituted into MSP1E3 nanodiscs (E. coli polar lipid extract : egg phosphatidylcholine 3:1); 20 mM Hepes/Tris pH 7.4, 200 mM NaCl with 1 mM L-asp, 10 mM DL-TBOA, 10 mM TFB-TBOA or NaCl only; 3D classes without symmetry, then C3 refinement
[5] = molecular target: GltPh-K55C/C321A/A364C, cross-linked with HgCl2 (GltPh^IFS) (UniProt O59010); assay: as above

## NC(C(=O)O)C(OCc1ccccc1)C(=O)O (racemic) [DL-TBOA, DL-threo-β-benzyloxyaspartate]
GltPh [1]
  cryo-EM structure: wild type outward-facing GltPh in complex with TBOA (GltPh^OFS-TBOA)

## N[C@@H](CC(=O)O)C(=O)O [L-asp]
GltPh [2]
  cryo-EM structure: bound to L-asp (GltPh^IFS-Asp)

## N[C@H](C(=O)O)[C@H](OCc1cccc(NC(=O)c2ccc(C(F)(F)F)cc2)c1)C(=O)O [TFB-TBOA, (2S,3S)−3-[3-[4-(trifluoromethyl)benzoylamino]benzyloxy]aspartate]
GltPh [3]
  pKd: 5.42

## GltPh, the fully functional seven-histidine mutant referred to as wildtype (WT) (from UniProt O59010 1-417) (natural protein)
[4]
  stoichiometry N: 3

## GltPh-K55C/C321A/A364C, cross-linked with HgCl2 (GltPh^IFS) (from UniProt O59010 1-425) (natural protein)
[5]
  stoichiometry N: 3
